Measurements from patent US8618301B2, “5-phenylpyrazolopyridine derivatives, preparation and therapeutic use thereof” (Sanofi, priority 2009, dated 2013).

What was measured:
mouse Nurr1 receptor = target: T1, mouse Nurr1 receptor (Mus musculus, UniProt Q06219); experiment: In vitro activity on N2A cells (8NBRE-luciferase reporter); type: cell-based; settings: N2A-8NBRE cells, 24 hours incubation
T1 construct: a cell line (N2A) endogenously expressing the mouse Nurr1 receptor; host or cells: Neuro-2A (N2A) mouse neuroblastoma cells stably transfected with 8NBRE-luciferase
Experimental: The compounds according to the invention have formed the subject of pharmacological assays which make it possible to determine their modulatory effect on NOT. Evaluation of the In Vitro Activity on N2A Cells
The activity of the compounds according to the invention was evaluated on a cell line (N2A) endogenously expressing the mouse Nurr1 receptor and stably transfected with the NOT binding response element (NBRE) coupled to the luciferase reporter gene. The assays were carried out according to the procedure described below.
The Neuro-2A cell line comes from a standard commercial source (ATCC). The Neuro-2A clone was obtained, from a spontaneous tumour originating from an A albino mouse strain, by R. J Klebe et al. This Neuro-2A line is subsequently stably transfected with 8NBRE-luciferase. The N2A-8NBRE cells are cultured until confluence in 75 cm^2 culture flasks containing DMEM supplemented with 10% of foetal calf serum, 4.5 g/l of glucose and 0.4 mg/ml of geneticin. After a week of culture, the cells are recovered with 0.25% trypsin for 30 seconds and then resuspended in DMEM without phenol red, containing 4.5 g/l of glucose and 10% of Hyclone delipidized serum, and deposited into transparent-bottom 96-well white plates. The cells are deposited at a rate of 60 000 per well in 75 μl for 24 hours before the addition of the products. The products are applied in 25 μl and incubated for a further 24 hours. On the day of the measurement, an equivalent volume (100 μl) of Steadylite is added to each well and then left for a period of 30 minutes in order to obtain complete cell lysis and maximum signal production. The plates are subsequently measured in a luminescence counter for microplates after having been sealed with an adhesive film. The products are prepared in the form of a stock solution at 10^−2M and then diluted in 100% of DMSO. Each product concentration is prediluted in culture medium before incubation with the cells, thus containing 0.625% final concentration of DMSO.

T1 sequence (Q06219 whole entry): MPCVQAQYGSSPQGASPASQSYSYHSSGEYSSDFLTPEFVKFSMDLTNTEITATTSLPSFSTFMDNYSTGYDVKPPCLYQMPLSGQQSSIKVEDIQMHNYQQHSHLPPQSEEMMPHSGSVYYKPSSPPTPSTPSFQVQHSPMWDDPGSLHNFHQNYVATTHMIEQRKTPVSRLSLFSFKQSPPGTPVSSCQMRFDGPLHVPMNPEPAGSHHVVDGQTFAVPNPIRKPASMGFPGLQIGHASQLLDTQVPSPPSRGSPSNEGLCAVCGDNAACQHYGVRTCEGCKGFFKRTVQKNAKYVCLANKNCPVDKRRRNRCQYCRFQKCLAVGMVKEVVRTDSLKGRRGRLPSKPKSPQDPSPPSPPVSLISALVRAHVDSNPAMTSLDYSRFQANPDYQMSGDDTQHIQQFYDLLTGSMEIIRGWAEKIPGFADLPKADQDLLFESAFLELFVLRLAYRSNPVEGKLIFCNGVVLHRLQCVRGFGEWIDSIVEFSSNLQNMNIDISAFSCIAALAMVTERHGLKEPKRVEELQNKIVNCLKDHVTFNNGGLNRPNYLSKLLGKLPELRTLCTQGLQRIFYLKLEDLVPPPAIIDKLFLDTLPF

EC50 (mouse Nurr1 receptor) [nM]	melting point [°C]	SMILES
0.2	161 to 164	OCc1cccc(-c2ccn3nc(-c4ccc(Cl)cc4)cc3c2)c1 [Compound 1, {3-[2-(4-chlorophenyl)pyrazolo[1,5-a]pyridin-5-yl]phenyl}methanol]
	159 to 161	CC(C)(O)c1cccc(-c2ccn3nc(-c4ccc(Cl)cc4)cc3c2)c1 [Compound 2, 2-{3-[2-(4-chlorophenyl)pyrazolo[1,5-a]pyridin-5-yl]phenyl}propan-2-ol]
	93 to 95	CC(O)c1cccc(-c2ccn3nc(-c4ccc(Cl)cc4)cc3c2)c1 (stereo not drawn) [Compound 3, 1-{3-[2-(4-chlorophenyl)pyrazolo[1,5-a]pyridin-5-yl]phenyl}ethanol]
	141 to 143	OCC1(c2cccc(-c3ccn4nc(-c5ccc(Cl)cc5)cc4c3)c2)CC1 [Compound 4, 1-{3-[2-(4-chlorophenyl)pyrazolo[1,5-a]pyridin-5-yl]phenyl}cyclopropylmethanol]
	190 to 192	OCc1c(F)ccc(-c2ccn3nc(-c4ccc(Cl)cc4)cc3c2)c1F [Compound 5, {3-[2-(4-chlorophenyl)pyrazolo[1,5-a]pyridin-5-yl]-2,6-difluorophenyl}-methanol]
	141 to 143	OCc1cccc(-c2ccn3nc(-c4ccc(F)cc4)cc3c2)c1 [Compound 6, {3-[2-(4-fluorophenyl)pyrazolo[1,5-a]pyridin-5-yl]phenyl}methanol]
	162 to 164	CC(C)(O)c1cccc(-c2ccn3nc(-c4ccc(F)cc4)cc3c2)c1 [Compound 7, 2-{3-[2-(4-fluorophenyl)pyrazolo[1,5-a]pyridin-5-yl]phenyl}propan-2-ol]
	132 to 134	CC(O)c1cccc(-c2ccn3nc(-c4ccc(F)cc4)cc3c2)c1 (stereo not drawn) [Compound 8, 1-{3-[2-(4-fluorophenyl)pyrazolo[1,5-a]pyridin-5-yl]phenyl}ethanol]
	130 to 132	COCc1cccc(-c2ccn3nc(-c4ccc(Cl)cc4)cc3c2)c1 [Compound 9, 2-(4-chlorophenyl)-5-(3-methoxymethylphenyl)pyrazolo[1,5-a]pyridine]
	214 to 216	OCc1ccc(-c2ccn3nc(-c4ccc(Cl)cc4)cc3c2)cc1 [Compound 10, {4-[2-(4-chlorophenyl)pyrazolo[1,5-a]pyridin-5-yl]phenyl}methanol]
1.7	144 to 146	OCc1ccccc1-c1ccn2nc(-c3ccc(Cl)cc3)cc2c1 [Compound 11, {2-[2-(4-chlorophenyl)pyrazolo[1,5-a]pyridin-5-yl]phenyl}methanol]
164	181 to 183	OC1CCc2ccc(-c3ccn4nc(-c5ccc(Cl)cc5)cc4c3)cc21 (stereo not drawn) [Compound 12, 6-[2-(4-chlorophenyl)pyrazolo[1,5-a]pyridin-5-yl]indan-1-ol]
